Patent US20090104278A1, “FOOD COMPOSITION FOR RECOVERY FROM FATIGUE” (Ajinomoto Co., Inc., priority 2002, published 2009)

Test system: CDF1 male mice
Assay: Spontaneous activity for 60 minutes after 3 hours forced walking exercise (treadmill), infrared sensor
Assay type: in vivo
Conditions: oral, Bonito Extract A 1 g/kg in terms of a free amino acid amount, known components of Bonito Extract A, vs Control group
Experimental: Three groups (A, B and C groups) of 5-week-old CDF1 male mice, each group consisting of 8 mice (n=8 for each group), were put in a treadmill and subjected to forced walking exercise for 3 hours. Then, the mice of the respective groups were orally administrated, using a gastric sonde, with (1) Bonito Extract A, (2) Bonito Extract B, and (3) Bonito Extract C in an amount of 1 g/kg in terms of free amino acid amount in the bonito extracts. Subsequently, their spontaneous activity for 60 minutes was measured using a spontaneous activity measuring apparatus provided with an infrared sensor, and comparison with the control group (Control group which was administrated with only deionized distilled water in the same manner as the samples) was carried out. The respective samples and the distilled water were administered in amounts of 0.5 mL. The result is represented in FIG. 1.
In the Figure, *, ** and *** represent significant differences from the control group, * being at p<0.05, ** being at p<0.01, and *** being at p<0.001. “Total counts” refers to the number of times of exercising that were measured with the infrared sensor for 60 minutes.
Three groups of 5-week-old CDF1 male mice, each group consisting of 8 mice (n=8 for each group), were put in a treadmill and subjected to forced walking exercise for 3 hours. […]

Molecule | recovery of spontaneous activity (Test Example 6, FIGS. 8, 9 and 10)
[Cl-].[Na+] [NaCl] | recovery of spontaneous activity was not observed
inosine 1-phosphate [nucleic acid] | recovery of spontaneous activity was not observed
